Reference: patent publication US9856279B2 (AGIOS PHARMACEUTICALS, INC, priority 2011, dated 2018)

The compounds below were run against IDH1 R132H (Homo sapiens, UniProt O75874, R132H) (assay: Assay for IDH1 R132H inhibitors (NADPH/aKG, resazurin detection)). Details: Table 3; enzyme assay, 50 minutes at room temperature; read-out: IC50 (IDH1 R132H Inhibition).
Assay type: biochemical
Summary of the method: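 Compound added to substrate mix (8 uM NADPH, 2 mM aKG), then enzyme mix (0.2 μg/ml IDH1 R132H); 50 min RT in 20 mM Tris pH 7.5, 150 mM NaCl, 10 mM MgCl2, 0.03% BSA. Resazurin detection mix (30 μM) 5 min RT; resorufin fluorescence Ex544/Em590.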

IDH1 R132H, sequence (O75874 whole entry R132H): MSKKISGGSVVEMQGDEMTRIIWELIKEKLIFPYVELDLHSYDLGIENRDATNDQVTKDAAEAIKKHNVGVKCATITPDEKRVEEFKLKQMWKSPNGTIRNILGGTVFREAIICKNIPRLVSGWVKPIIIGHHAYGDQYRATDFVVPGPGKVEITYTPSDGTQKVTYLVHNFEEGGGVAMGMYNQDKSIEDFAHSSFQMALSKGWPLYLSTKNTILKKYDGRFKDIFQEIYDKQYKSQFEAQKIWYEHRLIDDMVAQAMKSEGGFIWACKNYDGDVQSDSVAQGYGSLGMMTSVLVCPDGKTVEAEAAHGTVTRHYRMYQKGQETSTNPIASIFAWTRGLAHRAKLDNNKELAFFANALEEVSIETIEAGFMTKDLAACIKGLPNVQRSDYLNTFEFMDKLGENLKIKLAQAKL

IC50	SMILES
5000 to 15000 nM	CC(C)c1cc(-c2ccccc2)c(C#N)c(N2CCN(C(=O)Cc3ccccc3)C(C)C2)n1 (centres unmarked) [Compound 121, 6-isopropyl-2-(3-methyl-4-(2-phenylacetyl)piperazin-1-yl)-4-phenylnicotinonitrile]
≤ 1000 nM	COCCC(=O)N1CCN(c2nc(C3CC3)c(-c3ccc4ccccc4c3)c(C)c2C#N)C[C@H]1C [Compound 259, (R)-6-cyclopropyl-2-(4-(3-methoxypropanoyl)-3-methylpiperazin-1-yl)-4-methyl-5-(naphthalen-2-yl)nicotinonitrile]
≤ 1000 nM	Cc1ccc(-c2cc(C#N)c(N3CCN(C(=O)c4ccoc4C)[C@H](C)C3)nc2C(C)C)cc1 [Compound 182, (R)-6-isopropyl-2-(3-methyl-4-(2-methylfuran-3-carbonyl)piperazin-1-yl)-5-p-tolylnicotinonitrile]
1000 to 5000 nM	COCCC(=O)N1CCN(c2nc(C(C)C)c(OCc3ccccc3)cc2C#N)C[C@H]1C [Compound 254, (R)-5-(benzyloxy)-6-isopropyl-2-(4-(3-methoxypropanoyl)-3-methylpiperazin-1-yl)nicotinonitrile]
1000 to 5000 nM	COc1ccccc1-c1cc(C(C)C)nc(N2CCN(C(=O)Cc3ccccc3)C(C)C2)c1C#N (centres unmarked) [Compound 149]
≤ 1000 nM	COCCC(=O)N1CCN(c2nc(C3CC3)c(-c3cccc(OC)c3)cc2C#N)C[C@H]1C [Compound 236, (R)-6-cyclopropyl-5-(3-methoxyphenyl)-2-(4-(3-methoxypropanoyl)-3-methylpiperazin-1-yl)nicotinonitrile]
≤ 1000 nM	COCCC(=O)N1CCN(c2nc(C(C)C)c(-c3cccc(OC)c3)cc2C#N)C[C@H]1C [Compound 212, (R)-6-isopropyl-5-(3-methoxyphenyl)-2-(4-(3-methoxypropanoyl)-3-methylpiperazin-1-yl)nicotinonitrile]
5000 to 15000 nM	CC(C)c1nc(N2CCN(C(=O)c3ccoc3)CC2)c(C#N)cc1-c1ccccc1 [Compound 124, 2-(4-(furan-3-carbonyl)piperazin-1-yl)-6-isopropyl-5-phenylnicotinonitrile]
5000 to 15000 nM	CC(C)c1cc(-c2ccccc2O)c(C#N)c(N2CCN(C(=O)c3ccoc3)[C@H](C)C2)n1 [Compound 157, (R)-2-(4-(furan-3-carbonyl)-3-methylpiperazin-1-yl)-4-(2-hydroxyphenyl)-6-isopropylnicotinonitrile]
5000 to 15000 nM	CC(C)c1cc(-c2ccccc2)c(C#N)c(N2CCN(C(=O)c3ccccc3)CC2)n1 [Compound 100, 2-(4-benzoylpiperazin-1-yl)-6-isopropyl-4-phenylnicotinonitrile]
1000 to 5000 nM	Cc1occc1C(=O)N1CCN(c2nc(C(C)C)c(-c3ccc(C(C)C)cc3)cc2C#N)C[C@H]1C [Compound 202, (R)-6-isopropyl-5-(4-isopropylphenyl)-2-(3-methyl-4-(2-methylfuran-3-carbonyl)piperazin-1-yl)nicotinonitrile]
5000 to 15000 nM	N#Cc1c(-c2ccccc2)cc(C2CCCCC2)nc1N1CCN(C(=O)c2ccco2)CC1 [Compound 137, 6-cyclohexyl-2-(4-(furan-2-carbonyl)piperazin-1-yl)-4-phenylnicotinonitrile]
≤ 1000 nM	COCCC(=O)N1CCN(c2nc(C3CC3)c(-c3ccccc3F)cc2C#N)C[C@H]1C [Compound 249, (R)-6-cyclopropyl-5-(2-fluorophenyl)-2-(4-(3-methoxypropanoyl)-3-methylpiperazin-1-yl)nicotinonitrile]
1000 to 5000 nM	COc1ccccc1-c1cc(C#N)c(N2CCN(C(=O)c3ccco3)[C@H](C)C2)nc1C(C)C [Compound 176, (R)-2-(4-(furan-2-carbonyl)-3-methylpiperazin-1-yl)-6-isopropyl-5-(2-methoxyphenyl)nicotinonitrile]

Same assay, conditions: enzyme assay of Example 12; read-out: IDH1R132H IC50

SMILES	IC50
COCCC(=O)N1CCN(c2nc(C3CC3)c(-c3ccc(F)c4ccccc34)cc2C#N)C[C@H]1C [Compound 290, (R)-6-cyclopropyl-5-(4-fluoronaphthalen-1-yl)-2-(4-(3-methoxypropanoyl)-3-methylpiperazin-1-yl)nicotinonitrile]	< 500 nM
COCCC(=O)N1CCN(c2nc(C3CC3)c(-c3cccc(C(N)=O)c3)cc2C#N)C[C@H]1C [Compound 305, (R)-3-(5-cyano-2-cyclopropyl-6-(4-(3-methoxypropanoyl)-3-methylpiperazin-1-yl)pyridin-3-yl)benzamide]	500 to 1000 nM

Results, then the compound that gave them:

IC50	SMILES
500 to 1000 nM	COCCC(=O)N1CCN(c2nc(C3CC3)c(-c3cc(Cl)nc(C#N)c3)cc2C#N)C[C@H]1C [Compound 673, (R)-6′-chloro-2-cyclopropyl-6-(4-(3-methoxypropanoyl)-3-methylpiperazin-1-yl)-[3,4′-bipyridine]-2′,5-dicarbonitrile]
< 500 nM	C=CS(=O)(=O)N(c1cccc(-c2cc(C#N)c(N3CCN(C(=O)CCOC)[C@H](C)C3)nc2C2CC2)c1)S(=O)(=O)C=C [Compound 440, (R)—N-(3-(5-cyano-2-cyclopropyl-6-(4-(3-methoxypropanoyl)-3-methylpiperazin-1-yl)pyridin-3-yl)phenyl)-N-(vinylsulfonyl)ethenesulfonamide]
500 to 1000 nM	COCCC(=O)N1CCN(c2nc(C3CC3)c(-c3cccc(NS(=O)(=O)CCl)c3)cc2C#N)C[C@H]1C [Compound 404, (R)-1-chloro-N-(3-(5-cyano-2-cyclopropyl-6-(4-(3-methoxypropanoyl)-3-methylpiperazin-1-yl)pyridin-3-yl)phenyl)methanesulfonamide]
< 500 nM	C=Cc1cnnc(-c2c(C3CC3)nc(N3CCN(C(=O)C[C@@H]4CCO4)[C@H](C4CC4)C3)c(C#N)c2C)c1 [Compound 780, 6-cyclopropyl-2-((R)-3-cyclopropyl-4-(2-((S)-oxetan-2-yl)acetyl)piperazin-1-yl)-4-methyl-5-(5-vinylpyridazin-3-yl)nicotinonitrile]
500 to 1000 nM	Cc1cc(-c2cc(C#N)c(N3CCN(C(=O)C4CC4)[C@H](C4CC4)C3)nc2C2CC2)ccn1 [Compound 523, (R)-6-(4-(cyclopropanecarbonyl)-3-cyclopropylpiperazin-1-yl)-2-cyclopropyl-2′-methyl-3,4′-bipyridine-5-carbonitrile]
500 to 1000 nM	N#Cc1cc(-c2cccc3c2CNC3=O)c(C2CC2)nc1N1CCN(C(=O)C2CC2)[C@H](C2CC2)C1 [Compound 464, (R)-2-(4-(Cyclopropanecarbonyl)-3-cyclopropylpiperazin-1-yl)-6-cyclopropyl-5-(1-oxoisoindolin-4-yl)nicotinonitrile]
< 500 nM	COCCC(=O)N1CCN(c2nc(C3CC3)c(-c3ccccc3CCOC)cc2C#N)C[C@H]1C [Compound 338, (R)-6-cyclopropyl-5-[2-(2-methoxy-ethyl)-phenyl]-2-[4-(3-methoxy-propionyl)-3-methyl-piperazin-1-yl]-nicotinonitrile]
500 to 1000 nM	N#Cc1cc(-c2cnnc3ccccc23)c(C2CC2)nc1N1CCN(C(=O)C2CC2)[C@H](C2CC2)C1 [Compound 495, (R)-5-(cinnolin-4-yl)-2-(4-(cyclopropanecarbonyl)-3-cyclopropylpiperazin-1-yl)-6-cyclopropylnicotinonitrile]
< 500 nM	N#Cc1cc(-c2ccnc(NCCO)n2)c(C2CC2)nc1N1CCN(C(=O)C2CC2)[C@H](C2CC2)C1 [Compound 512, (R)-2-(4-(cyclopropanecarbonyl)-3-cyclopropylpiperazin-1-yl)-6-cyclopropyl-5-(2-(2-hydroxyethylamino)pyrimidin-4-yl)nicotinonitrile]
< 500 nM	COCCC(=O)N1CCN(c2nc(C3CC3)c(N(C)c3ccnc(Cl)c3)cc2C#N)C[C@H]1C [Compound 699, (R)-5-((2-chloropyridin-4-yl)(methyl)amino)-6-cyclopropyl-2-(4-(3-methoxypropanoyl)-3-methylpiperazin-1-yl)nicotinonitrile]
< 500 nM	C=Cc1ccnc(Nc2cc(C#N)c(N3CCN(C(=O)/C=C/CCO)[C@H](C(C)C)C3)nc2C2CC2)c1 [Compound 791, (R,E)-6-cyclopropyl-2-(4-(5-hydroxypent-2-enoyl)-3-isopropylpiperazin-1-yl)-5-((4-vinylpyridin-2-yl)amino)nicotinonitrile]
< 500 nM	N#Cc1cncc(-c2cc(C#N)c(N3CCN(C(=O)CC(F)(F)F)[C@H](C4CC4)C3)nc2C2CC2)c1 [Compound 525, (R)-2-cyclopropyl-6-(3-cyclopropyl-4-(3,3,3-trifluoropropanoyl)piperazin-1-yl)-[3,3′-bipyridine]-5,5′-dicarbonitrile]
1000 to 10000 nM	COCCC(=O)N1CCN(c2nc(C3CC3)c(-c3ccnc(OS(=O)(=O)C(F)(F)F)c3)cc2C#N)C[C@H]1C [Compound 779, (R)-5-cyano-2-cyclopropyl-6-(4-(3-methoxypropanoyl)-3-methylpiperazin-1-yl)-[3,4′-bipyridin]-2′-yl trifluoromethanesulfonate]
500 to 1000 nM	N#Cc1cc(-c2ccc3c(c2)C(=O)C(=O)N3)c(C2CC2)nc1N1CCN(C(=O)C2CC2)[C@H](C2CC2)C1 [Compound 504, (R)-2-(4-(cyclopropanecarbonyl)-3-cyclopropylpiperazin-1-yl)-6-cyclopropyl-5-(2,3-dioxoindolin-5-yl)nicotinonitrile]
500 to 1000 nM	Cc1c(C#N)c(N2CCN(C(=O)C3CC3)[C@H](C3CC3)C2)nc(C2CC2)c1-c1cn[nH]c1 [Compound 478, (R)-2-(4-(cyclopropanecarbonyl)-3-cyclopropylpiperazin-1-yl)-6-cyclopropyl-4-methyl-5-(1H-pyrazol-4-yl)nicotinonitrile]
500 to 1000 nM	C=Cc1cc(-c2c(C3CC3)nc(N3CCN(C(=O)OC(C)(C)C)[C@H](C4CC4)C3)c(C#N)c2C)cnn1 [Compound 772, (R)-tert-butyl 4-(3-cyano-6-cyclopropyl-4-methyl-5-(6-vinylpyridazin-4-yl)pyridin-2-yl)-2-cyclopropylpiperazine-1-carboxylate]
